The values that follow come from US20200223889A1, “Bicyclic Compounds Capable of Binding to Melanocortin 4 Receptor” (Novo Nordisk A/S, priority 2017, published 2020).

The structures appear in SMILES notation. Positions of bridges follow the written chain, without caps; N, C: chain ends. Non-standard residues stand in square brackets, D forms with d. Residues, ends and D or L forms follow the SMILES beside them. Phe(4-CN) = N#Cc1ccc(C[C@H](N)C(=O)O)cc1; Hyp = O=C(O)[C@@H]1C[C@@H](O)CN1; Aze = O=C(O)[C@@H]1CCN1; Aib = CC(C)(N)C(=O)O

The target in assay [1] is T1, human MC4R (Homo sapiens, UniProt P32245).
T1 construct: expressed in transfected cells
The assay can be described thus: 125NDP-α-MSH competitive binding to membranes of BHK cells expressing human MC4 receptor (filtration assay). The conditions noted are these: human MC4R, BHK cell membranes, 125NDP-α-MSH radioligand; read-out: MC4R binding Ki. Here is the method:
In Vitro ^125NDP-α-MSH Binding to Recombinant BHK Cells Expressing Human MC4 Receptor (Filtration Assay)
In order to assess the binding affinity of the selected compounds for the human MC4R competitive binding assays was performed with radiolabeled NDP-alpha MSH (^125NDP-α-MSH).
The assay was performed in 96-well filterplates (Unifilter) using BHK cells stably expressing the human MC4 receptor.
The BHK cell membranes were prepared from frozen or fresh cells that were homogenized in 20 mM HEPES pH 7.1, 5 mM MgCl2, 1 mg/ml bacitracin (buffer 1) and centrifuged at 15000 rpm at 4° C., 10 min in a Sorvall RC 5B plus, SS-34 rotor. The supernatant was discarded, and the pellets were re-suspended in buffer 1, homogenized and centrifuged two more times. The final pellets were re-suspended in buffer 1 and the protein concentration was measured and adjusted with buffer 1 to 5 mg/ml and the membrane preparation was kept at −80° C. until assay. The assay was run on a dilution of this cell membrane suspension without any further preparation. The suspension was diluted to give maximally 10% specific binding, i.e. to approx. 50-100 fold dilution, optimized after each membrane preparation. The assay was performed in a total volume of 200 μl: 50 μl of cell suspension, 50 μl of ^125NDP-α-MSH (apx. […] in final concentration), 50 μl of test compound and 50 μl binding buffer were mixed and incubated for 2 h at 25° C. (binding buffer: 25 mM HEPES, pH 7.0, 1 mM CaCl2), 1 mM MgSO4, 1 mM EGTA, 0.005% Tween™ 20 and 0.1% HSA or, alternatively, 0.1% ovalbumin (Sigma; catalogue No. A-5503)). Test compounds were dissolved in 100% DMSO and diluted in binding buffer in a dose range from 1 μM to 0.001 nM. Radiolabelled ligand and membranes were diluted in binding buffer. The incubation was stopped by dilution with 8×100 μl ice-cold 0.9% NaCl. The radioactivity retained on the filters was counted using a Packard Topcounter. The data were analysed by non-linear regression analysis of binding curves, using the Windows™ program GraphPad™ Prism (GraphPad Software, USA).

Assay [2] deals with T1, human MC4R. The assay is described as follows: Functional cAMP assay (CisBio HTRF) in BHK cells expressing human MC4R. The conditions noted are these: for EC50: BHK cells expressing human MC4R, '>' = highest dose used with no response, read-out: MC4R cAMP EC50; for MC1R/MC4R cAMP EC50 ratio: MC1R cAMP EC50 divided by MC4R cAMP EC50. The assay is classed as cell-based. The method, boiled down: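 Compound working solutions, 10-fold dilutions from 2 μM at twice final strength, in buffer containing 1 mM IBMX, were incubated 30 min at 25 °C with BHK cells stably carrying human MC4R or MC1R. Accumulated cAMP was then detected by competitive HTRF after 1 h at 25 °C and fitted by non-linear regression.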
In general terms: Changes in cAMP serve as a functional read-out for many G protein-coupled receptors.

Broadly, the Ki is a measure of affinity in units of concentration, obtained from inhibition or displacement. A word on the EC50: it is the concentration that produces a half-maximal response.

T1 sequence (P32245 whole entry): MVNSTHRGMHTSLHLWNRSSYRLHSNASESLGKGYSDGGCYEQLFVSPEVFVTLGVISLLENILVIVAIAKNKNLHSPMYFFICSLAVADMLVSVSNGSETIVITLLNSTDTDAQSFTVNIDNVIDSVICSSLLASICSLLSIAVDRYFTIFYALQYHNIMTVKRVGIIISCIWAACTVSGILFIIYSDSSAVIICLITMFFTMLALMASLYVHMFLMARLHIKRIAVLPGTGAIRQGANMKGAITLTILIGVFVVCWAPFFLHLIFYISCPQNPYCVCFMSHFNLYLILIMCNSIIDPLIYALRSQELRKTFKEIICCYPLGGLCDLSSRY

For `C[C@@H]1NC(=O)[C@@H]2CSSC[C@H](NC(=O)[C@H](Cc3ccc(C#N)cc3)NC(=O)[C@H](CCCNC(=N)N)NC(=O)[C@@H](Cc3ccccc3)NC(=O)[C@H](Cc3c[nH]cn3)NC1=O)C(=O)N[C@@H](C)C(=O)N[C@@H](CCCCN)C(=O)N[C@@H](CCCCN)C(=O)N[C@@H](CCCCN)C(=O)N[C@@H](Cc1c[nH]c3ccccc13)C(=O)N2` [Chem. 65, c[c[Cys-Ala-His-D-Phe-Arg-4-CN- Phe-Cys]-Ala-Lys-Lys-Lys-Trp]] (cyclo(AH[dF]R[Phe(4-CN)]CAKKKWC); disulfide 6-12), the Ki on human MC4R [1] was found to be 0.47 nM. Besides, at human MC4R [2], the EC50 was 0.42 nM and the “MC1R/MC4R cAMP EC50 ratio” value was 26.
Taken in the same sequence, the figures for `CC(C)[C@H]1NC(=O)[C@@H]2CSSC[C@H](NC(=O)[C@H](Cc3c[nH]c4ccccc34)NC(=O)[C@H](CCCNC(=N)N)NC(=O)[C@@H](Cc3ccccc3)NC(=O)[C@H](Cc3c[nH]cn3)NC1=O)C(=O)N[C@H](C(C)C)C(=O)N[C@@H](Cc1c[nH]cn1)C(=O)N[C@H](Cc1ccccc1)C(=O)N[C@@H](CCCNC(=N)N)C(=O)N[C@@H](Cc1c[nH]c3ccccc13)C(=O)N2` [Chem. 34, c[c[Cys-D-Val-His-D-Phe-Arg-Trp- Cys]-D-Val-His-D-Phe-Arg-Trp]] (cyclo(C[dV]H[dF]RWC[dV]H[dF]RW); disulfide 1-7) were 0.88 nM, 0.12 nM and 22.
Taken in the same sequence, the figures for `CC(=O)NCCCC[C@@H]1NC(=O)[C@@H](Cc2ccccc2)NC(=O)[C@H](Cc2c[nH]cn2)NC(=O)[C@H](C)NC(=O)[C@@H]2CSSC[C@H](NC(=O)[C@H](Cc3c[nH]c4ccccc34)NC1=O)C(=O)N[C@@H](C)C(=O)N[C@@H](CCCCN)C(=O)N[C@H](CCCCN)C(=O)N[C@@H](CCCCN)C(=O)N[C@@H](Cc1c[nH]c3ccccc13)C(=O)N2` [Chem. 58, c[c[Cys-Ala-His-D-Phe-AcLys-Trp- Cys]-Ala-Lys-D-Lys-Lys-Trp]] (cyclo(AH[dF]K(Ac)WCAK[dK]KWC); disulfide 6-12) were 0.09 nM, 0.11 nM and 36.
Consider `C[C@@H]1NC(=O)[C@@H]2CSSC[C@H](NC(=O)[C@H](CCCNC(=N)N)NC(=O)[C@H](CCCCN)NC(=O)[C@H](CCCCN)NC(=O)[C@H](CCCCN)NC1=O)C(=O)N1C[C@H](O)C[C@H]1C(=O)N[C@@H](Cc1c[nH]cn1)C(=O)N[C@H](Cc1ccccc1)C(=O)N[C@@H](Cc1c[nH]cn1)C(=O)N[C@@H](Cc1c[nH]c3ccccc13)C(=O)N2` [Chem. 97, c[c[Cys-Hyp-His-D-Phe-His-Trp-Cys]- Ala-Lys-Lys-Lys-Arg]] (cyclo(AKKKRC[Hyp]H[dF]HWC); disulfide 6-12), for which, at human MC4R [1], the Ki was found to be 0.05 nM. For the same compound, at human MC4R [2], the EC50 worked out at 0.19 nM and the “MC1R/MC4R cAMP EC50 ratio” value came out at 122.
Turning to `C[C@@H]1NC(=O)[C@@H]2CSSC[C@H](NC(=O)[C@H](Cc3c[nH]c4ccccc34)NC(=O)[C@H](CCCCN)NC(=O)[C@H](CCCCN)NC(=O)[C@H](CCCCN)NC1=O)C(=O)N1CC[C@H]1C(=O)N[C@@H](Cc1c[nH]cn1)C(=O)N[C@H](Cc1ccccc1)C(=O)N[C@@H](Cc1c[nH]cn1)C(=O)N[C@@H](Cc1c[nH]c3ccccc13)C(=O)N2` [Chem. 82, c[c[Cys-AZE-His-D-Phe-His-Trp-Cys]- Ala-Lys-Lys-Lys-Trp]] (cyclo(AKKKWC[Aze]H[dF]HWC); disulfide 6-12), the Ki at human MC4R [1] was found to be 0.07 nM. The “MC1R/MC4R cAMP EC50 ratio” value on human MC4R [2] was 178.
For `C[C@@H]1NC(=O)[C@@H]2CSSC[C@H](NC(=O)[C@H](Cc3c[nH]c4ccccc34)NC(=O)[C@H](CCCCN(C)C)NC(=O)[C@@H](Cc3ccccc3)NC(=O)[C@H](Cc3c[nH]cn3)NC1=O)C(=O)N[C@@H](C)C(=O)N[C@@H](Cc1c[nH]cn1)C(=O)N[C@H](Cc1ccccc1)C(=O)N[C@@H](CCCCN(C)C)C(=O)N[C@@H](Cc1c[nH]c3ccccc13)C(=O)N2` [Chem. 18, c[c[Cys-Ala-His-D-Phe-Lys(Me)2-Trp- Cys]-Ala-His-D-Phe-Lys(Me)2-Trp]], the Ki at human MC4R [1] came to 0.38 nM. Besides, on human MC4R [2], the EC50 amounted to 0.12 nM and the “MC1R/MC4R cAMP EC50 ratio” value was 35.
Taken in the same sequence, the figures for `CC1(C)NC(=O)[C@@H]2CSSC[C@H](NC(=O)[C@H](Cc3c[nH]c4ccccc34)NC(=O)[C@H](CCCCN)NC(=O)[C@@H](Cc3ccccc3)NC(=O)[C@H](Cc3c[nH]cn3)NC1=O)C(=O)NC(C)(C)C(=O)N[C@@H](Cc1c[nH]cn1)C(=O)N[C@H](Cc1ccccc1)C(=O)N[C@@H](CCCCN)C(=O)N[C@@H](Cc1c[nH]c3ccccc13)C(=O)N2` [Chem. 40, c[c[Cys-Aib-His-D-Phe-Lys-Trp-Cys]- Aib-His-D-Phe-Lys-Trp]] (cyclo([Aib]H[dF]KWC[Aib]H[dF]KWC); disulfide 6-12) were 0.31 nM, 0.29 nM and 38.
For the compound `C[C@@H]1NC(=O)[C@@H]2CSSC[C@H](NC(=O)[C@H](Cc3c[nH]c4ccccc34)NC(=O)[C@H](Cc3c[nH]cn3)NC(=O)[C@@H](Cc3ccccc3)NC(=O)[C@H](Cc3c[nH]cn3)NC1=O)C(=O)N[C@@H](C)C(=O)N[C@@H](CCCCN)C(=O)N[C@@H](CCCCN)C(=O)N[C@@H](CCCCN)C(=O)N[C@@H](Cc1c[nH]c3ccccc13)C(=O)N2` [Chem. 60, c[c[Cys-Ala-His-D-Phe-His-Trp-Cys]- Ala-Lys-Lys-Lys-Trp]] (cyclo(AH[dF]HWCAKKKWC); disulfide 6-12), at human MC4R [1], the Ki was determined as 0.1 nM. Besides, at human MC4R [2], the EC50 came out at 0.17 nM and the “MC1R/MC4R cAMP EC50 ratio” value stood at 313.
On the same counts, the results for `C[C@@H]1NC(=O)[C@@H]2CSSC[C@H](NC(=O)[C@H](Cc3c[nH]c4ccccc34)NC(=O)[C@H](CCCCN)NC(=O)[C@H](CCCCN)NC(=O)[C@H](CCCCN)NC1=O)C(=O)N[C@@H](CCCCN)C(=O)N[C@@H](Cc1c[nH]cn1)C(=O)N[C@H](Cc1ccccc1)C(=O)N[C@@H](Cc1c[nH]cn1)C(=O)N[C@@H](Cc1c[nH]c3ccccc13)C(=O)N2` [Chem. 76, c[c[Cys-Lys-His-D-Phe-His-Trp-Cys]- Ala-Lys-Lys-Lys-Trp]] (cyclo(AKKKWCKH[dF]HWC); disulfide 6-12) are 0.09 nM, 0.16 nM and 136.
`NCCCC[C@H]1NC(=O)[C@@H]2CSSC[C@H](NC(=O)[C@H](Cc3c[nH]c4ccccc34)NC(=O)[C@H](Cc3c[nH]cn3)NC(=O)[C@@H](Cc3ccccc3)NC(=O)[C@H](Cc3c[nH]cn3)NC1=O)C(=O)N[C@H](CCCCN)C(=O)N[C@@H](Cc1c[nH]cn1)C(=O)N[C@H](Cc1ccccc1)C(=O)N[C@@H](Cc1c[nH]cn1)C(=O)N[C@@H](Cc1c[nH]c3ccccc13)C(=O)N2` [Chem. 86, c[c[Cys-D-Lys-His-D-Phe-His-Trp- Cys]-D-Lys-His-D-Phe-His-Trp]] (cyclo(C[dK]H[dF]HWC[dK]H[dF]HW); disulfide 1-7): at human MC4R [1], the Ki came to 9.6 nM. For the same compound, at human MC4R [2], the EC50 turned out to be 14.5 nM and the “MC1R/MC4R cAMP EC50 ratio” value is 10.
On the same counts, the results for `C[C@@H]1NC(=O)[C@@H]2CSSC[C@H](NC(=O)[C@H](CCCNC(=N)N)NC(=O)[C@H](CCCCN)NC(=O)[C@H](CCCCN)NC(=O)[C@H](CCCCN)NC1=O)C(=O)N1CCC[C@H]1C(=O)N[C@@H](Cc1c[nH]cn1)C(=O)N[C@H](Cc1ccccc1)C(=O)N[C@@H](Cc1c[nH]cn1)C(=O)N[C@@H](Cc1c[nH]c3ccccc13)C(=O)N2` [Chem. 71, c[c[Cys-Pro-His-D-Phe-His-Trp-Cys]- Ala-Lys-Lys-Lys-Arg]] (cyclo(AKKKRCPH[dF]HWC); disulfide 6-12) are 0.05 nM, 0.08 nM and 415.
